# Literature values as cited in publication PMC11214510 (Saudi Journal of Biological Sciences, 2024).
# Test system: AChE
# Conditions: mice, long-term supplementation, 40 mg/kg; ref Kasbe et al., 2015
smiles,measurement,value
O=c1c2cc(O)c(O)cc2oc2cc(O)c([C@@H]3O[C@H](CO)[C@@H](O)[C@H](O)[C@H]3O)c(O)c12 [mangiferin],AChE expression produced by AlCl3,inhibits the expression of AChE
